5 molecules from ChEMBL document CHEMBL5724914, “Linking interpersonal differences in gut microbiota composition and drug biotransformation activity” (2024) can be followed below.

Data set [1] in a line: The drug is tested on Z-027 corresponding to metagenome with ENA study accession number: PRJEB37062 and ENA sample accession number: ERS12561826 for biotransformation under anaerobic condition. The drug concentrations were measured over 9 timepoints collected between 0 and 24 hours of incubation by liquid-chromatography-coupled mass spectrometry (LC–MS). Particulars: 2 µM.

A short description of data set [2]: The drug is tested on Z-018 corresponding to pig gut metagenome with ENA study accession number: PRJEB37062 and ENA sample accession number: ERS12561817 for biotransformation under anaerobic condition. The drug concentrations were measured over 9 timepoints collected between 0 and 24 hours of incubation by liquid-chromatography-coupled mass spectrometry (LC–MS). Particulars: 2 µM.

Data set [3] in a line: The drug is tested on Z-014 corresponding to rat gut metagenome with ENA study accession number: PRJEB37062 and ENA sample accession number: ERS12561814 for biotransformation under anaerobic condition. The drug concentrations were measured over 9 timepoints collected between 0 and 24 hours of incubation by liquid-chromatography-coupled mass spectrometry (LC–MS). Conditions: 2 µM.

Data set [4] can be described thus: The drug is tested on Z-023 corresponding to metagenome with ENA study accession number: PRJEB37062 and ENA sample accession number: ERS12561822 for biotransformation under anaerobic condition. The drug concentrations were measured over 9 timepoints collected between 0 and 24 hours of incubation by liquid-chromatography-coupled mass spectrometry (LC–MS). Conditions: 2 µM.

Data set [5] can be described thus: The drug is tested on Z-012 corresponding to metagenome with ENA study accession number: PRJEB37062 and ENA sample accession number: ERS12561812 for biotransformation under anaerobic condition. The drug concentrations were measured over 9 timepoints collected between 0 and 24 hours of incubation by liquid-chromatography-coupled mass spectrometry (LC–MS). Particulars: 2 µM.

The conditions of data set [6]: human gut metagenome, 24 h, 2 µM.
The conditions of data set [7]: human gut metagenome, 24 h, 2 µM. The source holds these as a separate data set.
The conditions of data set [8]: human gut metagenome, 24 h, 2 µM. The source holds these as a separate data set.
For data set [9] the following is noted: human gut metagenome, 24 h, 2 µM. This is another data set of the same source.
Data set [10] is described as follows: The drug is tested on Z-016 corresponding to mouse gut metagenome with ENA study accession number: PRJEB37062 and ENA sample accession number: ERS12561815 for biotransformation under anaerobic condition. The drug concentrations were measured over 9 timepoints collected between 0 and 24 hours of incubation by liquid-chromatography-coupled mass spectrometry (LC–MS). Particulars: 2 µM.

The conditions of data set [11]: human gut metagenome, 24 h, 2 µM. The source holds these as a separate data set.
For data set [12] the following is noted: human gut metagenome, 24 h, 2 µM. The source holds these as a separate data set.
Data set [13] in a line: The drug is tested on WLS-090 corresponding to human gut metagenome with ENA study accession number: PRJEB37062 and ENA sample accession number: ERS12561753 for biotransformation under anaerobic condition. The drug concentrations were measured over 9 timepoints collected between 0 and 24 hours of incubation by liquid-chromatography-coupled mass spectrometry (LC–MS). Conditions: 2 µM.

For data set [14] the following is noted: human gut metagenome, 24 h, 2 µM. This is another data set of the same source.
The nature of data set [15]: The drug is tested on Z-019 corresponding to rat gut metagenome with ENA study accession number: PRJEB37062 and ENA sample accession number: ERS12561818 for biotransformation under anaerobic condition. The drug concentrations were measured over 9 timepoints collected between 0 and 24 hours of incubation by liquid-chromatography-coupled mass spectrometry (LC–MS). Particulars: 2 µM.

The nature of data set [16]: The drug is tested on WLS-220 corresponding to human gut metagenome with ENA study accession number: PRJEB37062 and ENA sample accession number: ERS12561769 for biotransformation under anaerobic condition. The drug concentrations were measured over 9 timepoints collected between 0 and 24 hours of incubation by liquid-chromatography-coupled mass spectrometry (LC–MS). Particulars: 2 µM.

Data set [17] in a line: The drug is tested on WLS-310 corresponding to human gut metagenome with ENA study accession number: PRJEB37062 and ENA sample accession number: ERS12561785 for biotransformation under anaerobic condition. The drug concentrations were measured over 9 timepoints collected between 0 and 24 hours of incubation by liquid-chromatography-coupled mass spectrometry (LC–MS). Particulars: 2 µM.

The conditions of data set [18]: human gut metagenome, 24 h, 2 µM. The source holds these as a separate data set.
For data set [19] the following is noted: human gut metagenome, 24 h, 2 µM. The source holds these as a separate data set.
Data set [20] is described as follows: The drug is tested on Z-004 corresponding to metagenome with ENA study accession number: PRJEB37062 and ENA sample accession number: ERS12561804 for biotransformation under anaerobic condition. The drug concentrations were measured over 9 timepoints collected between 0 and 24 hours of incubation by liquid-chromatography-coupled mass spectrometry (LC–MS). Conditions: 2 µM.
Further: call rule not given here.

Regarding `COc1ccc2cc([C@H](C)C(=O)O)ccc2c1` [NAPROXEN], the “Bacterial Biotransformation” value in [1] is given as “Compound NOT metabolized”; in data set [2], “Compound NOT metabolized”; in data set [3], “Compound NOT metabolized”; in data set [4] it was “Compound NOT metabolized”; in [5], “Compound NOT metabolized”; in [6], “Compound metabolized”. In addition, the “Bacterial Biotransformation” value in data set [7] is on record as “Compound metabolized”; in data set [8], “Compound metabolized”; in [9], “Compound metabolized”; in [10], “Compound NOT metabolized”; in [11], “Compound NOT metabolized”; in data set [12], “Compound NOT metabolized”. Moreover, the “Bacterial Biotransformation” value in data set [13] was “Compound metabolized”; in data set [14], “Compound NOT metabolized”; in data set [15] it was “Compound NOT metabolized”; in [16] it was “Compound metabolized”; in data set [17] it was “Compound metabolized”; in data set [18], “Compound NOT metabolized”. The “Bacterial Biotransformation” value in [19] is recorded as “Compound metabolized”; in data set [20], “Compound NOT metabolized”.
For the molecule `CN1CCC(OC(c2ccccc2)c2ccccc2)CC1`, the “Bacterial Biotransformation” value was “Compound NOT metabolized” in data set [1]; “Compound metabolized” in data set [2]; “Compound NOT metabolized” in [3]; “Compound metabolized” in [4]; “Compound NOT metabolized” in [5]; “Compound metabolized” in data set [6]. Further, the “Bacterial Biotransformation” value is reported as “Compound metabolized” in data set [7]; “Compound NOT metabolized” in [8]; “Compound metabolized” in [9]; “Compound NOT metabolized” in data set [10]; “Compound metabolized” in [11]; “Compound NOT metabolized” in data set [12]. In addition, the “Bacterial Biotransformation” value in [13] is given as “Compound metabolized”; in [14] it was “Compound NOT metabolized”; in data set [15] it was “Compound NOT metabolized”; in [16] it was “Compound metabolized”; in data set [17], “Compound metabolized”; in data set [18], “Compound metabolized”. Moreover, the “Bacterial Biotransformation” value in data set [19] and in data set [20] was “Compound NOT metabolized” in each case.
With `CC(C)c1nc(N(C)S(C)(=O)=O)nc(-c2ccc(F)cc2)c1/C=C/[C@@H](O)C[C@@H](O)CC(=O)[O-].CC(C)c1nc(N(C)S(C)(=O)=O)nc(-c2ccc(F)cc2)c1/C=C/[C@@H](O)C[C@@H](O)CC(=O)[O-].[Ca+2]` [ROSUVASTATIN CALCIUM], the “Bacterial Biotransformation” value in [1], in [2], in data set [3], in data set [4], in data set [5] and in data set [6] was “Compound NOT metabolized” in each case. In addition, the “Bacterial Biotransformation” value in data set [7] is reported as “Compound metabolized”; in data set [8], “Compound NOT metabolized”; in [9] it was “Compound metabolized”; in [10] it was “Compound NOT metabolized”; in data set [11] it was “Compound NOT metabolized”; in data set [12], “Compound NOT metabolized”. The “Bacterial Biotransformation” value in [13] is “Compound metabolized”; in data set [14] it was “Compound NOT metabolized”; in data set [15], “Compound NOT metabolized”; in data set [16], “Compound metabolized”; in [17] it was “Compound metabolized”; in [18], “Compound NOT metabolized”. In addition, the “Bacterial Biotransformation” value in data set [19] and in data set [20] was “Compound NOT metabolized” throughout.
Take `COc1ccc(CN2CCNCC2)c(OC)c1OC.Cl.Cl` [TRIMETAZIDINE DIHYDROCHLORIDE]: the “Bacterial Biotransformation” value in data set [1], in [2], in data set [3], in data set [4], in [5] and in [6] was “Compound NOT metabolized” in each case. The “Bacterial Biotransformation” value in data set [7], in [8], in data set [9], in data set [10], in data set [11] and in [12] was “Compound NOT metabolized” each time. Moreover, the “Bacterial Biotransformation” value in data set [13], in [14], in data set [15], in data set [16], in data set [17] and in data set [18] was “Compound NOT metabolized” throughout. For the same molecule, the “Bacterial Biotransformation” value in data set [19] and in [20] was “Compound NOT metabolized” throughout.
As to `O=C1N=C([O-])NC1(c1ccccc1)c1ccccc1.[Na+]` [PHENYTOIN SODIUM], the “Bacterial Biotransformation” value in data set [1] is listed as “Compound NOT metabolized”; in data set [2], “Compound NOT metabolized”; in data set [3], “Compound NOT metabolized”; in data set [4], “Compound NOT metabolized”; in data set [5], “Compound NOT metabolized”; in data set [6], “Compound metabolized”. For the same molecule, the “Bacterial Biotransformation” value in data set [7] is listed as “Compound metabolized”; in [8] it was “Compound NOT metabolized”; in data set [9], “Compound metabolized”; in data set [10], “Compound NOT metabolized”; in [11], “Compound NOT metabolized”; in data set [12] it was “Compound NOT metabolized”. The “Bacterial Biotransformation” value in [13] is recorded as “Compound metabolized”; in data set [14], “Compound NOT metabolized”; in data set [15], “Compound NOT metabolized”; in data set [16], “Compound metabolized”; in data set [17], “Compound metabolized”; in [18], “Compound NOT metabolized”. Also, the results for the “Bacterial Biotransformation” value in [19] and in data set [20] were “Compound metabolized” and “Compound NOT metabolized”, respectively.
